Source: patent US20240393292A1, “ALLERGY ANTIGEN AND EPITOPE THEREOF” (HOYU CO., LTD., priority 2019, published 2024)
One block for each substance: values may come before it.

Test system: IgE antibodies from patients
Assay: Wheat epitope mapping (2): overlapping 10-amino-acid peptide fragments shifted by one amino acid;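 on Rank of partial sequence as epitope binding to IgE antibody: key = sequence deemed particularly important within the common 15-residue sequence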;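 on epitope sequence binding to IgE antibody, rank (Key/Preferably/More preferably): key of grades: preferably = shorter partial sequence still acting as epitope; more preferably = sequence improving IgE binding; key = particularly important sequence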
Type: binding, human
Description: The peptides to be synthesized were shifted by one amino acid.
The library was prepared by the same procedure as described above in (A), and the presence or absence of binding of an IgE antibody present in the serum of a patient to each peptide fragment was measured by the same technique as described above. Numeric values determined from images obtained as a result of carrying out only the procedures (1) and (4) to (6) described above in the subsection titled (3) Spotting of cellulose-bound peptide solution were used as control values. The control value of each peptide was subtracted from numeric values determined from images obtained from results about the serum of patients, and the obtained value of the difference was compared with values of the peptides serving as the basis of overlapping.
Chemiluminescence intensity in images obtained by measurement was converted into a numeric value in the same manner as in (A). Numeric values determined from images obtained as a result of carrying out only the procedures (1) and (4) to (6) described above in the subsection titled (3) Spotting of cellulose-bound peptide solution (secondary antibody measurement values) were used as control values. The control value of each peptide was subtracted from numeric values determined from images obtained from results about the serum of patients. When values obtained using the sequences (SEQ ID NOs: 29, 131, 191, 281, 346, 414, 493, 562, 640, 706, 776, 899, 974, 1010, 1089, 1142, 1166, 1209, 1257, 1297, 1367, 1403, 1508, 1566, 1598, 1608, 1685, 1753, 1789, 1836, 1895, 1977, 2004, 2027, 2068, 2154, 2217, 2265, 2309, 2342, 2419, 2491, 2545, 2613, 2631, 2674, 2701, 2774, 2809 and 2830) serving as the basis of overlapping were defined as 100%, it was determined that: a peptide having a value of the difference that was less than 30% had no binding activity against IgE antibodies; a peptide having a value of the difference that was 30% or more and less than 50% had binding activity, albeit poor, against IgE antibodies; a peptide having a value of the difference that was 50% or more and less than 70% had binding activity, albeit somewhat poor, against IgE antibodies; and a peptide having a value of the difference that was 70% or more had equivalent or good binding activity against IgE antibodies and was thus a peptide had remaining binding activity against IgE antibodies.

[1] = serum of patient P22 (WDEIA), partial sequence
[2] = serum of patient P21 (WDEIA), sequence without X
[3] = serum of patient P36 (WDEIA), sequence without X
[4] = serum of patient P10 (WDEIA), sequence without X
[5] = serum of patient P33 (WDEIA), sequence without X
[6] = serum of patient P15 (WDEIA), sequence without X

Substance: 1190 (QQFPPQQPYP; REGION 1..10: note = epitope) [compound 1190]
- Epitope sequence binding to IgE antibody, rank of the sequence [2]: Key

Substance: 1253 (PIQQQPQPFP; REGION 1..10: note = epitope) [compound 1253]
- Epitope sequence binding to IgE antibody, rank of the sequence [3]: Preferably

Substance: 1687 (EAANFT; REGION 1..6: note = epitope) [compound 1687]
- Rank of partial sequence as epitope binding to IgE antibody (serum of patient P5 (WDEIA), sequence without X): Key

Substance: 1423 (YLQPQ; REGION 1..5: note = epitope) [compound 1423]
- Epitope sequence binding to IgE antibody, rank of the sequence [4]: Key

Substance: 1459 (YLQPQQPISQ; REGION 1..10: note = epitope) [compound 1459]
- Rank of partial sequence as epitope binding to IgE antibody (serum of patient P24 (WDEIA), sequence without X): Further preferably

Substance: 1472 (YLQPQQPIS; REGION 1..9: note = epitope) [compound 1472]
- Rank of partial sequence as epitope binding to IgE antibody (serum of patient P27 (WDEIA), sequence without X): Preferably

Substance: 1446 (PQQPISQQQ; REGION 1..9: note = epitope) [compound 1446]
- Rank of partial sequence as epitope binding to IgE antibody [2]: Preferably

Substance: 1712 (EAANF; REGION 1..5: note = epitope) [compound 1712]
- epitope sequence binding to IgE antibody, rank (Key/Preferably/More preferably) (serum of patient P34 (WDEIA)): Key

Substance: 1665 (VPFVPISG; REGION 1..8: note = epitope) [compound 1665]
- Rank of partial sequence as epitope binding to IgE antibody (serum of patient G2 (adult, general immediate type allergy to wheat), sequence without X): Key

Substance: 1752 (ANFTSQVIIM; REGION 1..10: note = epitope) [compound 1752]
- epitope sequence binding to IgE antibody, rank (Key/Preferably/More preferably) (serum of patient G8 (adult, general immediate type allergy to wheat)): Key

Substance: 1672 (PDKVPFVPIS; REGION 1..10: note = epitope) [compound 1672]
- Rank of partial sequence as epitope binding to IgE antibody (serum of patient G4 (adult, general immediate type allergy to wheat), sequence without X): Key

Substance: 1493 (YLQPQQPIS; REGION 1..9: note = epitope) [compound 1493]
- Rank of partial sequence as epitope binding to IgE antibody [3]: Key

Substance: 1432 (SQQQAQ; REGION 1..6: note = epitope) [compound 1432]
- Rank of partial sequence as epitope binding to IgE antibody [6]: Key

Substance: 1718 (EAANFT; REGION 1..6: note = epitope) [compound 1718]
- epitope sequence binding to IgE antibody, rank (Key/Preferably/More preferably) (serum of patient P36 (WDEIA)): More preferably

Substance: 1418 (YLQPQQPISQ; REGION 1..10: note = epitope) [compound 1418]
- Epitope sequence binding to IgE antibody, rank of the sequence (serum of patient P9 (WDEIA), sequence without X): Preferably

Substance: 1422 (YLQPQQ; REGION 1..6: note = epitope) [compound 1422]
- Epitope sequence binding to IgE antibody, rank of the sequence [4]: Preferably

Substance: 1372 (QPLPPQQQ; REGION 1..8: note = epitope) [compound 1372]
- Epitope sequence binding to IgE antibody, rank of the sequence (serum of patient P4 (WDEIA), sequence without X): Key

Substance: 1761 (YLKKVGYN; REGION 1..8: note = epitope) [compound 1761]
- epitope sequence binding to IgE antibody, rank (Key/Preferably/More preferably) (serum of patient P18 (WDEIA)): Key

Substance: 1502 (LQPQQP; REGION 1..6: note = epitope) [compound 1502]
- Rank of partial sequence as epitope binding to IgE antibody (serum of patient G7 (adult, general immediate type allergy to wheat), sequence without X): Key

Substance: 1390 (PWQQQ; REGION 1..5: note = epitope) [compound 1390]
- Epitope sequence binding to IgE antibody, rank of the sequence [6]: Key

Substance: 1658 (KVPFVPISG; REGION 1..9: note = epitope) [compound 1658]
- Rank of partial sequence as epitope binding to IgE antibody (serum of patient P54 (child, general immediate type allergy to wheat), sequence without X): Key

Substance: 1479 (YLQPQQPISQ; REGION 1..10: note = epitope) [compound 1479]
- Rank of partial sequence as epitope binding to IgE antibody [5]: Preferably

Results, then the substance that gave them:

- Epitope sequence binding to IgE antibody, rank of the sequence [1]: Preferably
Substance: 2682 (YKGPTL; REGION 1..6: note = epitope) [compound 2682]

- Epitope sequence binding to IgE antibody, rank of the sequence (serum of patient P27 (WDEIA), partial sequence): Preferably
Substance: 2725 (YKIGG; REGION 1..5: note = epitope) [compound 2725]

- epitope sequence binding to IgE antibody, rank (Key/Preferably/More preferably) (serum of patient P35 (WDEIA)): Key
Substance: 1769 (KVGYNP; REGION 1..6: note = epitope) [compound 1769]

- epitope sequence binding to IgE antibody, rank (Key/Preferably/More preferably) (serum of patient P24 (WDEIA)): Key
Substance: 1862 (VRTLQ; REGION 1..5: note = epitope) [compound 1862]

- Epitope sequence binding to IgE antibody, rank of the sequence (serum of patient P31 (WDEIA), partial sequence): Key
Substance: 2584 (QLVQ; REGION 1..4: note = epitope) [compound 2584]

- epitope sequence binding to IgE antibody, rank (Key/Preferably/More preferably) (serum of patient P31 (WDEIA)): Preferably
Substance: 1876 (VRTLQRT; REGION 1..7: note = epitope) [compound 1876]

- Epitope sequence binding to IgE antibody, rank of the sequence (Key/Preferably/More preferably) (serum of patient P26 (WDEIA), sequence without X): Preferably
Substance: 2286 (DKRVIERFEK; REGION 1..10: note = epitope) [compound 2286]

- epitope sequence binding to IgE antibody, rank (Key/Preferably/More preferably) (serum of patient P5 (WDEIA)): Preferably
Substance: 1839 (TVRTLQR; REGION 1..7: note = epitope) [compound 1839]

- epitope sequence binding to IgE antibody, rank (Key/Preferably/More preferably) (serum of patient P35 (WDEIA)): Key
Substance: 1823 (LPKFL; REGION 1..5: note = epitope) [compound 1823]

- Epitope sequence binding to IgE antibody, rank of the sequence (serum of patient P56 (child, general immediate type allergy to wheat), partial sequence): Further preferably
Substance: 2523 (PSQLNPQA; REGION 1..8: note = epitope) [compound 2523]

- Epitope sequence binding to IgE antibody, rank of the sequence (Key/Preferably/More preferably) [5]: Key
Substance: 2290 (DKRVIERFE; REGION 1..9: note = epitope) [compound 2290]

- Epitope sequence binding to IgE antibody, rank of the sequence (serum of patient G9 (adult, general immediate type allergy to wheat), partial sequence): Key
Substance: 2611 (QSTYQLVQQL; REGION 1..10: note = epitope) [compound 2611]

- epitope sequence binding to IgE antibody, rank (Key/Preferably/More preferably) (serum of patient P30 (WDEIA)): Preferably
Substance: 1872 (YTVRTLQRT; REGION 1..9: note = epitope) [compound 1872]

- Epitope sequence binding to IgE antibody, rank of the sequence (serum of patient P17 (WDEIA), partial sequence): Key
Substance: 2680 (YKGPTL; REGION 1..6: note = epitope) [compound 2680]

- epitope sequence binding to IgE antibody, rank (Key/Preferably/More preferably) (serum of patient P27 (WDEIA)): Key
Substance: 1762 (KEVSSYLKK; REGION 1..9: note = epitope) [compound 1762]

- Epitope sequence binding to IgE antibody, rank of the sequence (serum of patient G2 (adult, general immediate type allergy to wheat), partial sequence): Key
Substance: 2531 (FQPSQLN; REGION 1..7: note = epitope) [compound 2531]

- Epitope sequence binding to IgE antibody, rank of the sequence (Key/Preferably/More preferably) (serum of patient G1 (adult, general immediate type allergy to wheat), sequence without X): Key
Substance: 2300 (DKRVIERFEK; REGION 1..10: note = epitope) [compound 2300]

- epitope sequence binding to IgE antibody, rank (Key/Preferably/More preferably) (serum of patient P35 (WDEIA)): Preferably
Substance: 1884 (TVRTLQRT; REGION 1..8: note = epitope) [compound 1884]

- Epitope sequence binding to IgE antibody, rank of the sequence (serum of patient P3 (WDEIA), partial sequence): Key
Substance: 2704 (YKIGGI; REGION 1..6: note = epitope) [compound 2704]

- epitope sequence binding to IgE antibody, rank (Key/Preferably/More preferably) (serum of patient P55 (child, general immediate type allergy to wheat)): Key
Substance: 1773 (EVSSYLKK; REGION 1..8: note = epitope) [compound 1773]

- epitope sequence binding to IgE antibody, rank (Key/Preferably/More preferably) (serum of patient P29 (WDEIA)): Key
Substance: 1871 (VRTLQR; REGION 1..6: note = epitope) [compound 1871]

- Epitope sequence binding to IgE antibody, rank of the sequence (Key/Preferably/More preferably) [3]: Preferably
Substance: 2401 (VTEIV; REGION 1..5: note = epitope) [compound 2401]

- Epitope sequence binding to IgE antibody, rank of the sequence (Key/Preferably/More preferably) (serum of patient P8 (WDEIA), sequence without X): Key
Substance: 2273 (GIDKRV; REGION 1..6: note = epitope) [compound 2273]

- Epitope sequence binding to IgE antibody, rank of the sequence (serum of patient P2 (WDEIA), partial sequence): Preferably
Substance: 2493 (SSQVSF; REGION 1..6: note = epitope) [compound 2493]

- Epitope sequence binding to IgE antibody, rank of the sequence (serum of patient P24 (WDEIA), partial sequence): Key
Substance: 2617 (SKRV; REGION 1..4: note = epitope) [compound 2617]

- Epitope sequence binding to IgE antibody, rank of the sequence [1]: Key
Substance: 2508 (SQVSF; REGION 1..5: note = epitope) [compound 2508]

- Epitope sequence binding to IgE antibody, rank of the sequence (serum of patient P25 (WDEIA), partial sequence): Key
Substance: 2721 (GIGTVPVG; REGION 1..8: note = epitope) [compound 2721]
